From patent US20250042889A1, “3CLPRO PROTEASE INHIBITOR” (SHANGHAI QILU PHARMACEUTICAL RESEARCH AND DEVELOPMENT …, priority 2021, published 2025) come the findings set out here.

A value given as a limit tells only on which side of the number the result lay.

One experiment has as its target SARS-COV-2 3CLpro/Mpro protease (Severe acute respiratory syndrome coronavirus 2 (2019-nCoV) (SARS-CoV-2), UniProt P0DTD1). Description: Inhibitory effect on SARS-COV-2 3CLpro/Mpro protease by fluorescence resonance energy transfer. It counts as biochemical. As to conditions: IC50 (nM), Inhibition on SARS-CoV-2 3CLpro/Mpro protease, activity intervals A-D.
As to `CNc1cncc(C(=O)N2C[C@H](Nc3c(C(=O)N4C5CCCC4COC5)cc(Br)cc3[N+](=O)[O-])[C@@H](OC)C2)c1` [Example 371], the IC50 fell in the range of 10 to 50 nM. The same measure, in the same setting: to `CNc1cncc(C(=O)N2CCC[C@@H](Nc3c(C(=O)N4CC5CC(C4)O5)cc(Br)cc3[N+](=O)[O-])C2)c1` [Example 266] belongs 10 to 50 nM; to `CNc1cncc(C(=O)N2CCC[C@@H](Nc3c(C(=O)N4C5CCC4COC5)cc(Br)cc3[N+](=O)[O-])C2)c1` [Example 358], 10 to 50 nM. Same read-out and setting: to `CNc1cncc(C(=O)N2CCC[C@@H](Nc3c(C(=O)N4CC5CCC(C4)N5)cc(Br)cc3[N+](=O)[O-])C2)c1` [Example 276] belongs 10 to 50 nM.

Staying with this experiment, now noted: activity intervals A-D, read-out: IC50 (nM), Inhibition on SARS-CoV-2 3CLpro/Mpro protease.
As for `CNc1cncc(C(=O)N2CCC[C@@H](Nc3c(C(=O)N4CCn5cccc5C4)cc(Br)cc3[N+](=O)[O-])C2)c1` [Example 323], the IC50 was in the range of 10 to 50 nM. Same read-out and setting: to `C[C@@H]1CN(C(=O)c2cc(Br)cc(C(F)(F)F)c2N[C@@H]2CCCC[C@@H]2NC(=O)c2cncc3cc(Cl)ccc23)C[C@H](C)O1` [Example 112] belongs 10 to 50 nM; to `CNc1cncc(C(=O)N[C@H]2CCOC[C@H]2Nc2c(C(=O)N3CCC[C@H](C)C3)cc(Br)cc2[N+](=O)[O-])c1` [Example 234], 10 to 50 nM; to `O=C(c1cc(Br)cc([N+](=O)[O-])c1N[C@@H]1CCCN(C(=O)c2cncc3cc(Cl)ccc23)C1)N1CCCCC1` [Example 8, (R)-(5-bromo-2-((1-(7-chloroisoquinolin-4-carbonyl)piperidin-3-yl)amino)-3-nitrophenyl)(piperidin-1-yl)methanone], less than 10 nM. On to `CNc1cncc(C(=O)N2C[C@H](Nc3c(C(=O)N4C[C@@H](C)O[C@@H](C)C4)cc(Br)cc3[N+](=O)[O-])C[C@H]2C(=O)NC2CN(CCOC)C2)c1` [Example 413], for which the IC50 was in the range of 100 to 200 nM. In the case of `C[C@@H]1CN(C(=O)c2cc(Br)cc([N+](=O)[O-])c2N[C@@H]2CCOC[C@@H]2NC(=O)c2cncc3ccccc23)C[C@H](C)O1` [Example 152], the IC50 was in the range of 10 to 50 nM. As for `O=C(N[C@H]1COCC[C@H]1Nc1c(C(=O)N2CCC(F)(F)CC2)cc(Br)cc1[N+](=O)[O-])c1cncc2cc(Cl)ccc12` [Example 206], the IC50 fell in the range of 50 to 100 nM. Same read-out and setting: next, `CNc1cncc(C(=O)N2CC(Nc3c(C(=O)N4CCN(CC(F)(F)F)CC4)cc(Br)cc3[N+](=O)[O-])C(F)(F)C2)c1` (stereo not shown) [Example 98]: 10 to 50 nM; `CNc1cncc(C(=O)N2CCC[C@@H](Nc3c(C(=O)N4CCC5(CCOC5)CC4)cc(Br)cc3[N+](=O)[O-])C2)c1` [Example 230]: less than 10 nM.

Take `CNc1cncc(C(=O)N2CCC[C@@H](Nc3c(C(=O)N4CCCOC(C)C4)cc(Br)cc3[N+](=O)[O-])C2)c1` (stereo partly shown) [Example 334]: the IC50 is 10 to 50 nM. Same read-out and setting: next, `C[C@@H]1C[C@H](C)CN(C(=O)c2cc(Br)cc([N+](=O)[O-])c2N[C@@H]2CCCN(C(=O)c3cncc(Br)c3)C2)C1` [Example 72]: less than 10 nM. Same read-out and setting: to `CNc1cncc(C(=O)N2C[C@H](Nc3c(C(=O)N4CCCCC4)cc(Br)cc3[N+](=O)[O-])C(F)(F)C2)c1` [Example 168] belongs 10 to 50 nM. For `COCCN1CCN(C(=O)c2cc(Br)cc([N+](=O)[O-])c2N[C@@H]2CCCN(C(=O)[C@H]3CNCC(F)(F)C3)C2)CC1` [Example 361], the IC50 is 10 to 50 nM. The same measure, in the same setting: to `O=C(c1cc(Br)cc([N+](=O)[O-])c1N[C@@H]1CCCN(C(=O)c2cncc3[nH]ccc23)C1)N1CCC(F)(F)CC1` [Example 28] belongs 10 to 50 nM. Still for that read-out and setting: to `CNc1cncc(C(=O)N2CCC[C@@H](Nc3c(C(=O)N4CCO[C@H](C(F)F)C4)cc(Br)cc3[N+](=O)[O-])C2)c1` [Example 55] belongs 10 to 50 nM. Take `O=C(c1cc(Br)cc([N+](=O)[O-])c1N[C@@H]1CCCN(C(=O)C2CNCc3ccccc32)C1)N1CCOCC1` (stereo partly shown) [Example 142]: the IC50 was 10 to 50 nM. As for `CNc1ccc2c(C(=O)N3CCC[C@@H](Nc4c(C(=O)N5C[C@@H](C)O[C@@H](C)C5)cc(Br)cc4[N+](=O)[O-])C3)cncc2c1` [Example 326], the IC50 lay in the range of 10 to 50 nM.

For the compound `CNc1cncc(C(=O)N2CCC[C@@H](Nc3c(C(=O)N4CCC(C)(OC)CC4)cc(Br)cc3[N+](=O)[O-])C2)c1` [Example 275], the IC50 lay in the range of 10 to 50 nM.

Take `C[C@H]1CN(C(=O)c2cc(Br)cc([N+](=O)[O-])c2N[C@@H]2CCCN(C(=O)[C@H]3CC(=O)Nc4ccccc43)C2)CCO1` [Example 283]: the IC50 was 10 to 50 nM. On the same count and under the same terms, to `O=C(c1cc(Br)cc([N+](=O)[O-])c1N[C@@H]1CCCN(C(=O)[C@H]2CNCC(F)(F)C2)C1)N1CCOC2(CC2)C1` [Example 328] belongs 10 to 50 nM. The same measure, in the same setting: next, `CNc1cncc(C(=O)N2C[C@H](Nc3c(C(=O)N4CCC(F)(F)CC4)cc(Br)cc3[N+](=O)[O-])[C@@H](OC)C2)c1` [Example 372]: 10 to 50 nM; `C=C[C@@H]1CN(C(=O)c2cc(Br)cc([N+](=O)[O-])c2N[C@@H]2CCCN(C(=O)c3cncc(NC)c3)C2)CCO1` [Example 344]: 10 to 50 nM; `CNc1cncc(C(=O)N2C[C@H](Nc3c(C(=O)N4C[C@@H](C)O[C@@H](C)C4)cc(Br)cc3[N+](=O)[O-])C[C@H]2C(=O)Nc2ccc3nn(C)cc3c2Cl)c1` [Example 425]: 100 to 200 nM. On the same count and under the same terms, to `CNc1cncc(C(=O)N2C[C@H](Nc3c(C(=O)N4C[C@@H](C)O[C@@H](C)C4)cc(Br)cc3[N+](=O)[O-])C[C@H]2C(=O)Nc2cn(C)c(=O)cc2Cl)c1` [Example 410] belongs 100 to 200 nM; to `CNc1cncc(C(=O)N2C[C@H](Nc3c(C(=O)N4C[C@@H](C)O[C@@H](C)C4)cc(Br)cc3[N+](=O)[O-])C[C@H]2C(=O)Nc2ccnc(Cl)n2)c1` [Example 442, (2S,4R)-4-((4-bromo-2-((2R,6S)-2,6-dimethylmorpholin-4-carbonyl)-6-nitrophenyl)amino)-N-(2-chloropyrimidin-4-yl)-1-(5-(methylamino)nicotinoyl) pyrrolidine-2-formamide], 10 to 50 nM.

For the compound `C[C@@H]1CN(C(=O)c2cc(Br)cc([N+](=O)[O-])c2N[C@@H]2CCCN(C(=O)[C@H]3CC(=O)Nc4ccccc43)C2)CCO1` [Example 282], the IC50 lay in the range of 10 to 50 nM.

For `CCn1cc(Br)c(NC(=O)[C@@H]2C[C@@H](Nc3c(C(=O)N4C[C@@H](C)O[C@@H](C)C4)cc(Br)cc3[N+](=O)[O-])CN2C(=O)c2cncc(NC)c2)n1` [Example 409], the IC50 lay in the range of 50 to 100 nM. The same measure, in the same setting: to `Cc1cc(C(=O)N2CCC[C@@H](Nc3c(C(=O)N4CCOCC4)cc(Br)cc3[N+](=O)[O-])C2)cc(=O)[nH]1` [Example 26, (R)-4-(3-((4-bromo-2-(morpholin-4-carbonyl)-6-nitrophenyl)amino)piperidin-1-carbonyl)-6-methylpyridin-2 (1H)-one] belongs 10 to 50 nM; to `O=C(c1cncc(Br)c1)N1CC(Nc2c(C(=O)N3CCC(F)(F)CC3)cc(Br)cc2[N+](=O)[O-])C(F)(F)C1` (stereo not shown) [Example 104], 10 to 50 nM; to `CNc1cncc(C(=O)N2C[C@H](Nc3c(C(=O)N4C[C@@H](C)O[C@@H](C)C4)cc(Br)cc3[N+](=O)[O-])C[C@H]2C(=O)N[C@@H]2CCNC2=O)c1` [Example 397], 50 to 100 nM. Same read-out and setting: to `O=C(c1cc(Br)cc([N+](=O)[O-])c1N[C@@H]1CCCN(C(=O)c2cncc3ccccc23)C1)N1CCOCC1` [Example 38] belongs less than 10 nM. On the same count and under the same terms, to `Cc1cc(C(=O)N2C[C@H](Nc3c(C(=O)N4CCN(CC(F)(F)F)CC4)cc(Br)cc3[N+](=O)[O-])C3(CC3)C2)cc(=O)[nH]1` [Example 90] belongs 10 to 50 nM; to `CNc1cncc(C(=O)N2CC(Nc3c(C(=O)N4CCC[C@H](C)C4)cc(Br)cc3[N+](=O)[O-])C(C)(C)C2)c1` (stereo partly shown) [Example 173], 10 to 50 nM. As to `C[C@@H]1CN(C(=O)c2cc(Br)cc([N+](=O)[O-])c2N[C@@H]2CCN(C(=O)c3cncc4cc(Cl)ccc34)C2)C[C@H](C)N1` [Example 125], the IC50 is less than 10 nM.

`Cc1cc(C(=O)N2C[C@H](Nc3c(C(=O)N4CCN(CC(F)(F)F)C(=O)C4)cc(Br)cc3[N+](=O)[O-])C3(CC3)C2)cc(=O)[nH]1` [Example 91]: the IC50 lay in the range of 10 to 50 nM. Still for that read-out and setting: next, `C[C@@H]1CN(C(=O)c2cc(Br)cc([N+](=O)[O-])c2N[C@@H]2CCCN(C(=O)c3cncc4[nH]ncc34)C2)C[C@H](C)O1` [Example 144]: 10 to 50 nM; `C[C@@H]1CN(C(=O)c2cc(Br)cc([N+](=O)[O-])c2N[C@H]2CN(C(=O)c3cncc(Br)c3)CC2(F)F)C[C@H](C)O1` [Example 203]: 10 to 50 nM; `CNc1cncc(C(=O)N2C[C@H](Nc3c(C(=O)N4CCCC(F)(F)C4)cc(Br)cc3[N+](=O)[O-])[C@@H](OC)C2)c1` [Example 374]: 10 to 50 nM. Regarding `COCCN1[C@H](C)CN(C(=O)c2cc(Br)cc([N+](=O)[O-])c2N[C@@H]2CCOC[C@@H]2NC(=O)c2cncc3ccccc23)C[C@@H]1C` [Example 211], the IC50 was in the range of 10 to 50 nM.

For `[2H]C([2H])([2H])Nc1cncc(C(=O)N2CCC[C@@H](Nc3c(C(=O)N4C[C@@H](C)O[C@@H](C)C4)cc(Br)cc3[N+](=O)[O-])C2)c1` [Example 347], the IC50 fell in the range of 10 to 50 nM. Same read-out and setting: to `COCCN1CCN(C(=O)c2cc(Br)cc([N+](=O)[O-])c2N[C@@H]2CCOC[C@@H]2NC(=O)c2cncc3ccccc23)CC1` [Example 227] belongs 10 to 50 nM. Take `CNc1cncc(C(=O)N2C[C@H](Nc3c(C(=O)N4C[C@@H](C)O[C@@H](C)C4)cc(Br)cc3[N+](=O)[O-])C[C@H]2COC)c1` [Example 447]: the IC50 fell in the range of 50 to 100 nM.

As for `CNc1cncc(C(=O)N2C[C@H](Nc3c(C(=O)N4C[C@@H](C)O[C@@H](C)C4)cc(Br)cc3[N+](=O)[O-])C3(CC3)C2)c1` [Example 20], the IC50 was 10 to 50 nM. Same read-out and setting: next, `O=C(c1cc(Br)cc([N+](=O)[O-])c1N[C@@H]1CCCN(C(=O)c2cc(=O)[nH]c3ccccc23)C1)N1CCN(CC(F)(F)F)CC1` [Example 138]: 10 to 50 nM; `CNc1cncc(C(=O)N2C[C@H](Nc3c(C(=O)N4C[C@@H](C)O[C@@H](C)C4)cc(Br)cc3[N+](=O)[O-])C[C@H]2C(=O)NCc2ccnc(F)c2)c1` [Example 426]: 100 to 200 nM.
